Laboratory results reported in BindingDB's records for doi:10.1016/j.ejmech.2023.115347 (Johann Wolfgang Goethe University, 2023).

Target: Ribosomal protein S6 kinase alpha-1 (Homo sapiens) (UniProt Q15418)
Assay: Inhibition of full length NanoLuc fused RSK1b (unknown origin) transfected in HEK293T cells using NanoBRET NanoGlo substrate incubated for 2 hrs in presence of tracer by NanoBRET assay

Chain of Ribosomal protein S6 kinase alpha-1 (Homo sapiens) (Q15418 whole entry, looked up, the tested form may be a part): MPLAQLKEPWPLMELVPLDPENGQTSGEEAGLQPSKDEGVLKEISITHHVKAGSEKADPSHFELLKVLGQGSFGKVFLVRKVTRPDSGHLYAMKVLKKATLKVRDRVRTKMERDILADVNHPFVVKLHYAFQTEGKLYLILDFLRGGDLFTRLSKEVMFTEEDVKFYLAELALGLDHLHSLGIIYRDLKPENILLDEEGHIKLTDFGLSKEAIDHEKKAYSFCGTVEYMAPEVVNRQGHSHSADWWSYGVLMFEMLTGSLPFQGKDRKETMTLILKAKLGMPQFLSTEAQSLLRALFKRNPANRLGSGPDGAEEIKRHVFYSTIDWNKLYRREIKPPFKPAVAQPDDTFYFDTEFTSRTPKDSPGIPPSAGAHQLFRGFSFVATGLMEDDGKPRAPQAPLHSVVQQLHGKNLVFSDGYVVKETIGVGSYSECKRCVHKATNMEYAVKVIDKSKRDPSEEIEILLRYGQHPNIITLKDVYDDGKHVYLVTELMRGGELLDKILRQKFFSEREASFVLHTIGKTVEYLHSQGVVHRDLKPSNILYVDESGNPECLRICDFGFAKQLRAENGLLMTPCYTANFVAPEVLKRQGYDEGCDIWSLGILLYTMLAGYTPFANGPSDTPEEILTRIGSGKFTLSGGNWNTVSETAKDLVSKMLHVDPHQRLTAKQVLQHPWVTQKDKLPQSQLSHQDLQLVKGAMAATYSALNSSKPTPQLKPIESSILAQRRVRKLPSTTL

`CNc1ncc2cc(-c3cc(F)ccc3F)c(=O)n(CCCCN)c2n1` gave an IC50 greater than 45 µM.
